Test results taken from ChEMBL document CHEMBL4840324, “Bioassay-Guided Isolation of an Abetiane-Type Diterpenoid from Prunella vulgaris That Protects against Concanavalin A-Induced Autoimmune Hepatitis” (J Nat Prod, 2021).
Activity calls are given as the source filed them. No cut-off for these calls is given here.

How the values were obtained:
Splenocyte [1] = assay: Inhibition of ConA-stimulated IL-6 production in C57BL/6J mouse splenocytes at 0.156 to 1.25 uM; format: functional, cell-based; conditions: dose 0.156-1.25 µM
Splenocyte [2] = assay: Immunosuppressive activity in C57BL/6J mouse splenocytes assessed as inhibition of anti-CD3/anti-CD28 induced T-cell proliferation at 0.625 uM for 72 hrs by CellTrace Violet staining based flow cytometric analysis (reference value: 78.4 %); format: functional; set-up: scale not given: the % may be the effect or the level left
Splenocyte [3] = assay: Immunosuppressive activity in C57BL/6J mouse splenocytes assessed as inhibition of anti-CD3/anti-CD28 induced T-cell proliferation at 2.5 uM for 72 hrs by CellTrace Violet staining based flow cytometric analysis (reference value: 78.4 %); format: functional; set-up: scale not given: the % may be the effect or the level left
Mus musculus [4] = assay: Hepatoprotective activity against ConA-induced hepatitis in C57BL/6J mouse assessed as effect on cleaved caspase 3 expression at 10 mg/kg, ip administered for 2 days by TUNEL staining based assay; format: functional, organism-based; conditions: time 2.0 day
Splenocyte [5] = assay: Inhibition of ConA-stimulated IFNgamma production in C57BL/6J mouse splenocytes at 0.156 to 1.25 uM; format: functional, cell-based; conditions: dose 0.156-1.25 µM
PBMC [6] = assay: Immunosuppressive activity against anti-CD3/anti-CD28 stimulated human PBMCs assessed as reduction of IFN-gamma secretion at 0.625 to 2.5 uM; format: functional, tissue-based; conditions: dose 0.625-2.5 µM
Splenocyte [7] = assay: Immunosuppressive activity against anti-CD3/anti-CD28 stimulated C57BL/6J mouse splenocytes assessed as reduction of IFN-gamma secretion at 0.625 to 2.5 uM; format: functional, cell-based; conditions: dose 0.625-2.5 µM
[8] = Hepatotoxicity in C57BL/6J mouse at 10 mg/kg, ip administered for 3 days by hematoxylin and eosin staining based immunohistochemical analysis; format: toxicity, organism-based; conditions: in vivo, 72 h, time 3 day
Mus musculus [9] = assay: Hepatoprotective activity against ConA-induced hepatitis in C57BL/6J mouse assessed as effect on BCL2 expression at 10 mg/kg, ip administered for 2 days by TUNEL staining based assay; format: functional, organism-based; conditions: time 2.0 day
Splenocyte [10] = assay: Immunosuppressive activity in C57BL/6J mouse splenocytes assessed as inhibition of anti-CD3/anti-CD28 induced T-cell proliferation at 1.25 uM for 72 hrs by CellTrace Violet staining based flow cytometric analysis (reference value: 78.4 %); format: functional; set-up: scale not given: the % may be the effect or the level left
[11] = Immunosuppressive activity in human PBMCs assessed as inhibition of anti-CD3/anti-CD28 induced T-cell proliferation at 1.25 uM for 72 hrs by CellTrace Violet staining based flow cytometric analysis (reference value: 63.3 %); format: functional, PBMC; set-up: scale not given: the % may be the effect or the level left
Mus musculus [12] = assay: Hepatoprotective activity against ConA-induced hepatitis in C57BL/6J mouse assessed as suppression of CD3+ T cells infiltration expression at 10 mg/kg, ip administered for 2 days by TUNEL staining based assay; format: functional, organism-based; conditions: time 2.0 day
Splenocyte [13] = assay: Immunosuppressive activity against anti-CD3/anti-CD28 stimulated C57BL/6J mouse splenocytes assessed as reduction of TNFalpha secretion at 0.625 to 2.5 uM; format: functional, cell-based; conditions: dose 0.625-2.5 µM
Mus musculus [14] = assay: Hepatoprotective activity against ConA-induced hepatitis in C57BL/6J mouse assessed as suppression of LDH level at 10 mg/kg, ip administered for 3 days by automatic analyzer; format: functional, organism-based; conditions: time 3.0 day
Splenocyte [15] = assay: Immunosuppressive activity in C57BL/6J mouse splenocytes assessed as inhibition of anti-CD3/anti-CD28 induced T-cell proliferation at 0.3125 uM for 72 hrs by CellTrace Violet staining based flow cytometric analysis (reference value: 78.4 %); format: functional; set-up: scale not given: the % may be the effect or the level left
Splenocyte [16] = assay: Immunosuppressive activity against anti-CD3/anti-CD28 stimulated C57BL/6J mouse splenocytes assessed as reduction of IL-4 secretion at 0.625 to 2.5 uM; format: functional, cell-based; conditions: dose 0.625-2.5 µM
PBMC [17] = assay: Immunosuppressive activity against anti-CD3/anti-CD28 stimulated human PBMCs assessed as reduction of TNFalpha secretion at 0.625 to 2.5 uM; format: functional, tissue-based; conditions: dose 0.625-2.5 µM
Mus musculus [18] = assay: Hepatoprotective activity against ConA-induced hepatitis in C57BL/6J mouse assessed as suppression of ALT level at 10 mg/kg, ip administered for 3 days by automatic analyzer; format: functional, organism-based; conditions: time 3.0 day
Splenocyte [19] = assay: Immunosuppressive activity against anti-CD3/anti-CD28 stimulated C57BL/6J mouse splenocytes assessed as reduction of IL-10 secretion at 0.625 to 2.5 uM; format: functional, cell-based; conditions: dose 0.625-2.5 µM
[20] = Immunosuppressive activity in human PBMCs assessed as inhibition of anti-CD3/anti-CD28 induced T-cell proliferation at 0.3125 uM for 72 hrs by CellTrace Violet staining based flow cytometric analysis (reference value: 63.3 %); format: functional, PBMC; set-up: scale not given: the % may be the effect or the level left
Splenocyte [21] = assay: Inhibition of ConA-stimulated TNFalpha production in C57BL/6J mouse splenocytes at 0.156 to 1.25 uM; format: functional, cell-based; conditions: dose 0.156-1.25 µM
[22] = Immunosuppressive activity in human PBMCs assessed as inhibition of anti-CD3/anti-CD28 induced T-cell proliferation at 2.5 uM for 72 hrs by CellTrace Violet staining based flow cytometric analysis (reference value: 63.3 %); format: functional, PBMC; set-up: scale not given: the % may be the effect or the level left
Splenocyte [23] = assay: Immunosuppressive activity in C57BL/6J mouse splenocytes assessed as inhibition of ConA-induced splenocytes proliferation at 0.3125 uM measured after 72 hrs by CellTrace Violet staining based flow cytometric analysis (reference value: 63.9 %); format: functional; set-up: scale not given: the % may be the effect or the level left
PBMC [24] = assay: Immunosuppressive activity against anti-CD3/anti-CD28 stimulated human PBMCs assessed as reduction of IL-10 secretion at 0.625 to 2.5 uM; format: functional, tissue-based; conditions: dose 0.625-2.5 µM
Splenocyte [25] = assay: Immunosuppressive activity against anti-CD3/anti-CD28 stimulated C57BL/6J mouse splenocytes assessed as reduction of IL-6 secretion at 0.625 to 2.5 uM; format: functional, cell-based; conditions: dose 0.625-2.5 µM
Mus musculus [26] = assay: Hepatoprotective activity against ConA-induced hepatitis in C57BL/6J mouse assessed as effect on FAS expression at 10 mg/kg, ip administered for 2 days by TUNEL staining based assay; format: functional, organism-based; conditions: time 2.0 day
Splenocyte [27] = assay: Immunosuppressive activity against anti-CD3/anti-CD28 stimulated C57BL/6J mouse splenocytes assessed as reduction of IL-17 secretion at 0.625 to 2.5 uM; format: functional, cell-based; conditions: dose 0.625-2.5 µM
[28] = Immunosuppressive activity in human PBMCs assessed as inhibition of anti-CD3/anti-CD28 induced T-cell proliferation at 0.625 uM for 72 hrs by CellTrace Violet staining based flow cytometric analysis (reference value: 63.3 %); format: functional, PBMC; set-up: scale not given: the % may be the effect or the level left
Splenocyte [29] = assay: Immunosuppressive activity in C57BL/6J mouse splenocytes assessed as inhibition of ConA-induced splenocytes proliferation at 0.625 uM measured after 72 hrs by CellTrace Violet staining based flow cytometric analysis (reference value: 63.9 %); format: functional; set-up: scale not given: the % may be the effect or the level left
PBMC [30] = assay: Immunosuppressive activity against anti-CD3/anti-CD28 stimulated human PBMCs assessed as reduction of IL-6 secretion at 0.625 to 2.5 uM; format: functional, tissue-based; conditions: dose 0.625-2.5 µM
Splenocyte [31] = assay: Inhibition of ConA-stimulated IL-2 production in C57BL/6J mouse splenocytes at 0.156 to 1.25 uM; format: functional, cell-based; conditions: dose 0.156-1.25 µM
Mus musculus [32] = assay: Hepatoprotective activity against ConA-induced hepatitis in C57BL/6J mouse assessed as suppression of AST level at 10 mg/kg, ip administered for 3 days by automatic analyzer; format: functional, organism-based; conditions: time 3.0 day
Splenocyte [33] = assay: Immunosuppressive activity in C57BL/6J mouse splenocytes assessed as inhibition of ConA-induced splenocytes proliferation at 1.25 uM measured after 72 hrs by CellTrace Violet staining based flow cytometric analysis (reference value: 63.9 %); format: functional; set-up: scale not given: the % may be the effect or the level left
Splenocyte [34] = assay: Immunosuppressive activity in C57BL/6J mouse splenocytes assessed as inhibition of ConA-induced splenocytes proliferation at 0.156 uM measured after 72 hrs by CellTrace Violet staining based flow cytometric analysis (reference value: 63.9 %); format: functional; set-up: scale not given: the % may be the effect or the level left

In the case of `COC1=C(C(C)C)C(=O)[C@]23O[C@@]2(C1=O)[C@@]1(C)CC[C@H](O)C(C)(C)[C@@H]1CC3=O`, the inhibition (Splenocyte [1]) is reported as “Active”, the Activity (Splenocyte [2]) is reported as 68.8% and the Activity (Splenocyte [3]) is reported as 5.48%. For the same compound, the Activity (Mus musculus [4]) was “inactive”, the inhibition (Splenocyte [5]) was “Active” and the Activity (PBMC [6]) was “Active”. The Activity (Splenocyte [7]) was “Active”, the Activity [8] was “Non-Toxic” and the Activity (Mus musculus [9]) was “inactive”. The Activity (Splenocyte [10]) was 7.39%, the Activity [11] was 24.9% and the Activity (Mus musculus [12]) was “Active”. For the same compound, the Activity (Splenocyte [13]) was “Active”, the Activity (Mus musculus [14]) was “Active” and the Activity (Splenocyte [15]) was 70.2%. For the same compound, the Activity (Splenocyte [16]) was “Active”, the Activity (PBMC [17]) was “Active” and the Activity (Mus musculus [18]) was “Active”. For the same compound, the Activity (Splenocyte [19]) was “Active”, the Activity [20] was 61.3% and the inhibition (Splenocyte [21]) was “Active”. The Activity [22] was 8.24%, the Activity (Splenocyte [23]) was 42.2% and the Activity (PBMC [24]) was “Active”. The Activity (Splenocyte [25]) was “Active”, the Activity (Mus musculus [26]) was “inactive” and the Activity (Splenocyte [27]) was “Active”. For the same compound, the Activity [28] was 56.4%, the Activity (Splenocyte [29]) was 29.9% and the Activity (PBMC [30]) was “Active”. The inhibition (Splenocyte [31]) was “Active”, the Activity (Mus musculus [32]) was “Active” and the Activity (Splenocyte [33]) was 10.8%. The Activity (Splenocyte [34]) was 51.1%.
